For ten compounds, IC50 results are on record in patent publication US10221177B2 (HYDRA BIOSCIENCES, INC., priority 2014, dated 2019).

The target in the test is human TRPA1 (Homo sapiens (Human), UniProt O75762). In words: In vitro inhibition of human TRPA1, whole cell patch configuration. The test is classed as cell-based. As to conditions: current activation 10 μM AITC, tested concentrations 320 pM to 3.2 μM, read-out: hTRPA1 IC50. In outline: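 Compound antagonism measured from voltage ramps (±100 or ±80 mV, 400 ms, every 4 s from −40 mV), analysed at −80 and 80 mV, or at constant −60 mV. HEPES-buffered NaCl bath, pH 7.4, EGTA or 2 mM Ca2+; temperature set by perfusion, within ±2° C; no junction-potential correction.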
Chain of human TRPA1 (O75762 whole entry, the tested form may be a part): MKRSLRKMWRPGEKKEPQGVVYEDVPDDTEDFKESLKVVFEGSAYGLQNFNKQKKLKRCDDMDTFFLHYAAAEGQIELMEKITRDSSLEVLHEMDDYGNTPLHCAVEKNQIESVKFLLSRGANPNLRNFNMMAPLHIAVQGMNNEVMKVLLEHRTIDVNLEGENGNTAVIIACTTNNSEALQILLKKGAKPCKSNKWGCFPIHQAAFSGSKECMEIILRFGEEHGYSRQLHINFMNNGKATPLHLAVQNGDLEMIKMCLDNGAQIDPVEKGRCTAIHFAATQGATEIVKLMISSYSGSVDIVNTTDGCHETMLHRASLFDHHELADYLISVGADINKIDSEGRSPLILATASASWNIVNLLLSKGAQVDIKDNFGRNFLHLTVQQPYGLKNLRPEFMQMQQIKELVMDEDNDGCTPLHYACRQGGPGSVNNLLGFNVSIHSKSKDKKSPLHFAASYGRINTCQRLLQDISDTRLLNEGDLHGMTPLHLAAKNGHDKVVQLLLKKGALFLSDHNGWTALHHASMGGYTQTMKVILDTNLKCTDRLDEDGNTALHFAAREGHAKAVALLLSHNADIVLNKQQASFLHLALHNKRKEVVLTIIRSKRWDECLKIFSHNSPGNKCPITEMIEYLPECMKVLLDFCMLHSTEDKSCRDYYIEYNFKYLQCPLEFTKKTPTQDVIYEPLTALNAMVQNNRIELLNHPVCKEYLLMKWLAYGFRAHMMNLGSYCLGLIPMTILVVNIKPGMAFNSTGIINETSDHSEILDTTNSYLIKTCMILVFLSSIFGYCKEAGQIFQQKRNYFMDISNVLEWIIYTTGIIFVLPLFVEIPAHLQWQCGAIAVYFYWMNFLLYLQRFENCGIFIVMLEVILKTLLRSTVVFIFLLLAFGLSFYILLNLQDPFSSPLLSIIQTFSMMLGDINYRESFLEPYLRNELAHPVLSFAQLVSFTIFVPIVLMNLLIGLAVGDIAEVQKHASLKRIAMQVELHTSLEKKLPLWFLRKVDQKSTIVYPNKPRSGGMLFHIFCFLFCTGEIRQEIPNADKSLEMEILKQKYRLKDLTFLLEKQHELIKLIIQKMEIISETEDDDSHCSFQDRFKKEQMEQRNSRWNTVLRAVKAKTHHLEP

Structures are written as SMILES.

As for `Cc1cc(Cn2c(=O)c3c(ncn3[C@@H](C)C(=O)Nc3cccc(-c4cnc(C)c(C)c4)n3)n(C)c2=O)no1` [Compound 127, (S)—N-(5′,6′-dimethyl-[2,3′-bipyridin]-6-yl)-2-(3-methyl-1-((5-methylisoxazol-3-yl)methyl)-2,6-dioxo-2,3-dihydro-1H-purin-7(6H)-yl)propanamide], the IC50 was determined as 25 nM. The same measure for `Cc1cc(Cn2c(=O)c3c(ncn3[C@@H](C)C(=O)Nc3cncc(-c4ccc(C(F)(F)F)nc4)n3)n(C)c2=O)no1` [Compound 118, (S)-2-(3-methyl-1-((5-methylisoxazol-3-yl)methyl)-2,6-dioxo-2,3-dihydro-1H-purin-7(6H)-yl)-N-(6-(6-(trifluoromethyl)pyridin-3-yl)pyrazin-2-yl)propanamide]: 17 nM; for `Cc1cc(Cn2c(=O)c3c(ncn3[C@@H](C)C(=O)Nc3cncc(-c4cncc(C(F)(F)F)c4)n3)n(C)c2=O)no1` [Compound 55, (S)-2-(3-methyl-1-((5-methylisoxazol-3-yl)methyl)-2,6-dioxo-2,3-dihydro-1H-purin-7(6H)-yl)-N-(6-(5-(trifluoromethyl)pyridin-3-yl)pyrazin-2-yl)propanamide]: 5 nM; for `Cc1cc(Cn2c(=O)c3c(ncn3[C@@H](C)C(=O)Nc3ccnc(-c4cnc(C(F)(F)F)c(C)c4)n3)n(C)c2=O)no1` [Compound 85, (S)-2-(3-methyl-1-((5-methylisoxazol-3-yl)methyl)-2,6-dioxo-2,3-dihydro-1H-purin-7(6H)-yl)-N-(2-(5-methyl-6-(trifluoromethyl)pyridin-3-yl)pyrimidin-4-yl)propanamide]: 3 nM.

Turning to `Cc1cc(Cn2c(=O)c3c(ncn3CC(=O)Nc3cccc(-c4cnc(C(F)(F)F)c(C)c4)n3)n(C)c2=O)on1` [Compound 225, 2-(3-methyl-1-((3-methylisoxazol-5-yl)methyl)-2,6-dioxo-2,3-dihydro-1H-purin-7(6H)-yl)-N-(5′-methyl-6′-(trifluoromethyl)-[2,3′-bipyridin]-6-yl)acetamide], the IC50 was 49 nM. As to `Cc1cc(Cn2c(=O)c3c(ncn3CC(=O)Nc3csc(-c4cnc(C(F)(F)F)nc4)n3)n(C)c2=O)no1` [Compound 259, 2-(3-methyl-1-((5-methylisoxazol-3-yl)methyl)-2,6-dioxo-2,3-dihydro-1H-purin-7(6H)-yl)-N-(2-(2-(trifluoromethyl)pyrimidin-5-yl)thiazol-4-yl)acetamide], the IC50 was found to be 17 nM. With `C[C@@H](C(=O)Nc1cncc(-c2cnc(N3CCC[C@H]3C(F)(F)F)nc2)n1)n1cnc2c1c(=O)n(CC#N)c(=O)n2C` [Compound 48, (S)-2-(1-(cyanomethyl)-3-methyl-2,6-dioxo-2,3-dihydro-1H-purin-7(6H)-yl)-N-(6-(2-((S)-2-(trifluoromethyl)pyrrolidin-1-yl)pyrimidin-5-yl)pyrazin-2-yl)propanamide], the IC50 is 7 nM.

In the case of `Cc1cc(Cn2c(=O)c3c(ncn3[C@@H](C)C(=O)Nc3cccc(-c4cnc(N5CCC[C@H]5C(F)(F)F)nc4)n3)n(C)c2=O)no1` [Compound 115, (S)-2-(3-methyl-1-((5-methylisoxazol-3-yl)methyl)-2,6-dioxo-2,3-dihydro-1H-purin-7(6H)-yl)-N-(6-(2-((S)-2-(trifluoromethyl)pyrrolidin-1-yl)pyrimidin-5-yl)pyridin-2-yl)propanamide], the IC50 amounted to 1 nM.

For the compound `CNC(=O)Cn1c(=O)c2c(ncn2[C@@H](C)C(=O)Nc2csc(-c3cnc(N4CC5CC5C4)nc3)n2)n(C)c1=O` (stereo partly drawn) [Compound 71, (2S)—N-(2-(2-(3-azabicyclo[3.1.0]hexan-3-yl)pyrimidin-5-yl)thiazol-4-yl)-2-(3-methyl-1-(2-(methylamino)-2-oxoethyl)-2,6-dioxo-2,3-dihydro-1H-purin-7(6H)-yl)propanamide], the IC50 was determined as 44 nM. Consider `CC(=O)Cn1c(=O)c2c(nc(C)n2CC(=O)Nc2cccc(-c3ccc(F)c(F)c3)n2)n(C)c1=O` [Compound 193, N-(6-(3,4-difluorophenyl)pyridin-2-yl)-2-(3,8-dimethyl-2,6-dioxo-1-(2-oxopropyl)-1,2,3,6-tetrahydropurin-7-yl)acetamide], for which the IC50 was 45 nM.

As a reminder, the IC50 is the concentration that inhibits the measured activity by half.
